Consider seven compounds from patent EP4378525A1, “NON PEPTIDERGIC AGONISTS OF OXYTOCIN RECEPTOR” (Université de Strasbourg, priority 2022, dated 2024).

Read-outs that look alike come from different tables or passages of the source.

The target in data set [1] is T1, oxytocin receptor (Homo sapiens, UniProt P30559).
T1 construct: expressed in transfected cells; host or cells: CHO cell lines
T1 sequence (P30559 1-389): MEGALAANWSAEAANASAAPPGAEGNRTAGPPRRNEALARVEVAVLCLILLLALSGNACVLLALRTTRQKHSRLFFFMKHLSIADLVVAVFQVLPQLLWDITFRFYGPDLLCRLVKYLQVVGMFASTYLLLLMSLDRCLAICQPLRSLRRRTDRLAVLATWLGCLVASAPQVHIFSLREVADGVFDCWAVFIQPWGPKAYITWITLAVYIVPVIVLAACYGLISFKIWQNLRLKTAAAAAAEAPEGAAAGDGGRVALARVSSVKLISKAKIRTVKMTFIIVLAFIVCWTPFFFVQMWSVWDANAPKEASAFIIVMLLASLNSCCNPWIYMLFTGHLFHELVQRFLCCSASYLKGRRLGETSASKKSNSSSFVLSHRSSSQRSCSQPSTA
Description: IP-One IP1 accumulation assay in CHO cell lines expressing oxytocin receptor (agonist activation). It is filed as cell-based. As to conditions: n=3; for Emax: CHO, percentage of the endogenous agonist maximal stimulation, read-out: OT-R Emax. As for the experimental part:
The activation constants (EC50 in nM) were measured in CHO cell lines expressing oxytocin receptor by IP-One IP1 accumulation assay. These values are the mean ± SEM of at least three separate experiments performed in triplicate. […] When there is only a weak stimulation, results are expressed as percentages of the endogenous agonist maximal stimulation at [ligand] = 1 µM (n = 2). Results are not significant (ns) when there is <10% response at [ligand] = 1 µM (n = 2).

Data set [2] deals with V1A-R (Homo sapiens, UniProt P37288). The experiment in a line: V1A receptor antagonist assay measured as calcium signal. The format is cell-based. The following applies: n=3; for Ratio V1A/OT: V1A-R IC50 / OT-R EC50; for IC50: antagonist, calcium signal, read-out: V1A-R (Antago) IC50. The text has this:
Comparison of efficacy as OT receptor agonist (measured as described in example 2), or as VIA receptor antagonist (measured as calcium signal, as follows), has been performed.

The conditions of data set [3]: in vivo; cited from earlier work.
Setting [4] is: CHO cell lines expressing oxytocin receptor, IP1 accumulation, read-out: OT-R EC50.
Where [5] appears, read: selectivity table, measured as described in example 2, read-out: OT-R (Ago) EC50.

Sequence of V1A-R (P37288 whole entry, species assumed): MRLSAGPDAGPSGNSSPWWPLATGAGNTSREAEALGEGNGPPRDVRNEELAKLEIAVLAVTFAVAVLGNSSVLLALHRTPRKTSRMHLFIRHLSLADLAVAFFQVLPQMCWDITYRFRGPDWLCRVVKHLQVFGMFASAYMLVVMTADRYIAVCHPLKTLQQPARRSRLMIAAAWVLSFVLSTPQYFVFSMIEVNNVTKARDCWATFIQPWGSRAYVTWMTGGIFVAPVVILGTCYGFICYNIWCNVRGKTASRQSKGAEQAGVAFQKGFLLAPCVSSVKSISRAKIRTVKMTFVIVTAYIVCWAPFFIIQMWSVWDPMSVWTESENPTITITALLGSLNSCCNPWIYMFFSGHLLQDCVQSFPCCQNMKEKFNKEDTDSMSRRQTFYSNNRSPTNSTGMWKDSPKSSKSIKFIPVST

A word on the Emax: it is the size of the effect at its maximum, as opposed to the concentration needed. For orientation: EC50 means the midpoint of the concentration-response curve. `Cc1cc(C(=O)N2Cc3cnn(C)c3Nc3ccccc32)ccc1CNC(=O)N1C[C@H](N=[N+]=[N-])C[C@H]1C(=S)N(C)C` [Compound 2]: the Emax in data set [1] turned out to be 80%. Moreover, the concentration for a half-maximal effect (EC50) in data set [1] (setting [4]) turned out to be 39.1 nM.
The term IC50 denotes the midpoint of a concentration-inhibition curve. As to `Cc1cc(C(=O)N2Cc3cnn(C)c3Nc3ccccc32)ccc1CNC(=O)N1C[C@@H](n2cc(CO)nn2)C[C@H]1C(=S)N(C)C` [Compound 6], in data set [2], the “Ratio V1A/OT” value was found to be 117 and the concentration for half-maximal inhibition (IC50) came out at 131 nM. In addition, the Emax in data set [1] turned out to be 100%. Moreover, the 50% effective concentration (EC50) in data set [1] (setting [4]) came to 0.7 nM. In data set [1] (setting [5]), the concentration giving a half-maximal response (EC50) amounted to 1.12 nM.
As for `Cc1cc(C(=O)N2Cc3cnn(C)c3Nc3ccccc32)ccc1CNC(=O)N1C[C@H](n2cc(CN)nn2)C[C@H]1C(=S)N(C)C` [Compound 8], the maximal response (Emax) in data set [1] was 120%. Besides, in data set [1] (setting [4]), the 50% effective concentration (EC50) was 33 nM.
In the case of `Cc1cc(C(=O)N2Cc3cnn(C)c3Nc3ccccc32)ccc1CNC(=O)N1C[C@H](n2cc(COCCOCCO)nn2)C[C@H]1C(=S)N(C)C` [Compound 14], the 50% effective concentration (EC50) in data set [1] (setting [4]) was 10 nM.
Same read-out and setting: in the case of `CCCc1cn([C@@H]2C[C@@H](C(=S)N(C)C)N(C(=O)NCc3ccc(C(=O)N4Cc5cnn(C)c5Nc5ccccc54)cc3C)C2)nn1` [Compound 19] it was 31 nM.
Take `Cc1cc(C(=O)N2Cc3cnn(C)c3Nc3ccccc32)ccc1CNC(=O)N1CCC[C@H]1C(=S)N(C)C` [Reference, reference compound]: in data set [2], the “Ratio V1A/OT” value worked out at 7.7 and the IC50 turned out to be 346 nM. For the same compound, in data set [1], the Emax turned out to be 96.7%. Moreover, the 50% effective concentration (EC50) in data set [1] (setting [4]) stood at 45.1 nM. Besides, in data set [1] (setting [5]), the 50% effective concentration (EC50) was determined as 45.1 nM.
Turning to oxytocin [OT], the half-life in blood result in data set [3] is “about 3 minutes”.
